Laboratory results published in paper PMC12730265, “Combinatorial Antimicrobial Effects of Imidazolium-Based Ionic Liquids and Antifungals on Model Fungal Organisms” (Biomolecules, 2025).
Read-outs that look alike come from different tables or passages of the source.

What was measured:
Assay type in all cases: cell-based
S. boulardii = assay: MIC50 by microbroth dilution; conditions: Saccharomyces cerevisiae
Method: (§1) A single colony was picked from each streak to prepare overnight in 5 mL fresh YPD broth and placed into a tilted rotating incubator set at 30 °C and 40 rpm overnight. After ~16–20 h, a fresh dilution in media (1:200) was made and used for the experiment. […] Finally, diluted culture was added to each well of a sterile 96-well plate containing serially diluted aliquots of each RTIL to a total volume of 100 µL. The plate was incubated at 30 °C overnight with shaking for 24 and 48 h. At both timepoints, the yeast was manually resuspended in the plate by pipetting and we measured the OD600 using a Spectramax M5 multimode plate reader (Molecular Devices, San Jose, CA, USA).
(§2) The four species of yeast tested included three common lab strains of non-pathogenic yeast strains, S. boulardii, S. cerevisiae, and S. pombe, and one common human pathogen, C. albicans.

S. cerevisiae [1] = assay: MIC50 by microbroth dilution; conditions: Saccharomyces cerevisiae
Method: as §1, §2

S. pombe = assay: MIC50 by microbroth dilution; conditions: Schizosaccharomyces pombe
Method: as §1, §2

C. albicans [2] = assay: MIC50 by microbroth dilution; conditions: Candida albicans, 48 h
Method: as §1, §2

S. cerevisiae [3] = assay: Kirby–Bauer disk diffusion assay on IL-containing YPD plates; conditions: for Zone of inhibition (ZOI) diameter: 100 = no growth on plate
Method: Assessment of fungal growth on YPD plates with AFs + ILs served as an indicator for the combined efficacy of treatment of ILs and AFs. YPD agar plates were made with addition of increasing concentrations of [HMIM]Cl at 0, 2.5, 6.25, and 25 mM or [OMIM]Cl at 0, 0.25, 0.625, and 2.5 mM. Plates solidified and dried on bench for 24 h before use. IN total, 400 μL of S. cerevisiae or C. albicans liquid culture at mid-log phase OD600 0.5 was spread using sterile glass beads to achieve even distribution. Following addition of culture, the plates were allowed to dry for 30 min before the addition of antifungal disks. Antifungal-infused disks were prepared using the stock solutions of solubilized antibiotics; 15 μL of each of the 4 azole antifungals at stock concentrations was pipetted onto a sterile 6 mm cellulose disk (BD). […] After plate drying was complete, sterile forceps were used to transfer the disks to the media, and the plate was grown upright in an incubator overnight at 30 °C. The following day, photographs were taken of the plates to visualize the zone of inhibition (ZOI) created by the combined treatment. Adobe Illustrator 2023 CC was used to perform digital measurements of ZOI diameters.
To assess the potential for combinatorial effects of ILs and AFs in yeast, Kirby–Bauer disk diffusion assays were performed for C. albicans and S. cerevisiae for [HMIM]Cl and [OMIM]Cl with all four AFs. […] The addition of 6 mm cellulose disks infused with equal volumes of solubilized AFs to the plates occurred after plating of C. albicans or S. cerevisiae, allowing for growth for 48 h at 23 °C, at which point the plates were evaluated for the establishment of zones of inhibition (ZOI). Digital pictures were acquired of all plates, and measurements of ZOI diameter were performed digitally as described in the Methods. […] With progressively increasing amounts of both [HMIM]Cl and [OMIM]Cl, ZOIs increased for all Afs, including Fluconazole and Itraconazole, which appear to be ineffective without IL in the Kirby–Bauer disk assay. Experiments were performed in triplicate and ZOIs were measured for all plates.
Similar experiments testing the combinatorial effects of [HMIM]Cl or [OMIM]Cl were performed on S. cerevisiae using Kirby–Bauer disk assays and quantified for changes in ZOI (Appendix Figure A1). ZOI measurements (mm) from both C. albicans and S. cerevisiae were compiled, and the averages are shown numerically as well as with shading and plotted in Figure 3. […] Finally, at intermediate concentrations of both [HMIM]Cl and [OMIM]Cl, a combinatorial effect of IL + AF was evident for all four AFs in S. cerevisiae, similar to observations in C. albicans.

C. albicans [4] = assay: Checkerboard assay IL + Clotrimazole, growth on YPD plate post-treatment (fungicidal); conditions: for average growth, visually scored (2 full, 1 interrupted, 0 no growth): [HMIM]Cl 0 mM
Method: C. albicans was grown overnight in YPD liquid media at 30 °C, at which point it was diluted into 10 mL of YPD media at 0.1 OD600 and was grown to mid-log phase 0.5 OD600 and subsequently diluted to 5 × 10^3 CFU/mL cells in YPD of which 180 μL of culture was distributed into a 96-well round-bottom culture dish. To this dish, 20 μL of IL, AF, or IL + AF was added to each well at concentrations indicated in each experiment. These culture plates were grown in an incubator shaker for 48 h at 30 °C, at which point the cultures were mixed by pipetting and then spotted onto YPD solid plates and allowed to grow for an additional 48 h. After 48 h, plates were visually scored for no growth (0), 50% growth (1), or 100% growth relative to PBS control (2). Experiments were performed in triplicate, and scores were averaged per well.
In order to evaluate if the same combinatorial effect was present in liquid culture and furthermore to identify the specific concentrations at which a combined effect may be present, checkerboard assays were performed. […] These assays were completed in triplicate for both [HMIM]Cl and [OMIM]Cl with the addition of Clotrimazole on C. albicans. In this assay, both IL and AF were loaded into a 96-well plate YPD liquid culture plate in double serial dilutions with decreasing IL from top to bottom and decreasing AF from left to right. Each well represents a different final concentration of both drugs in combination. Growth of the target microorganism was measured as growth in liquid media by OD600 nm, representing fungistatic interactions and [2] growth on a YPD plate post-treatment as fungicidal (Figure 4).
Checkerboard assays were performed in 96-well plates with Clotrimazole + [HMIM]Cl or [OMIM]Cl on C. albicans. These culture plates were grown in an incubator shaker for 48 h at 23 °C, and thereafter C. albicans was mixed by pipetting and then spotted onto YPD solid plates and allowed to grow for an additional 48 h. After 48 h, plates were visually scored for no growth (0), 50% growth (1), or 100% growth relative to PBS control (2). Experiments were performed in triplicate, and scores were averaged per well. […] We measured this by calculating the fractional inhibitory concentration (FIC) score ((MIC50 IL + AF)/(MIC50 AF)) + ((MIC50 IL + AF)/(MIC50 IL)). In this well-established measure of combined interactions, a score < 0.5 indicated synergistic interaction, 0.5–4 potential combinatorial interaction or no effect, and >4 antagonistic interaction.

[5] = 50% growth after 48 h in YPD media, OD600, read-out: MIC50
[6] = in combination with Clotrimazole 4 mg/L

Structure (SMILES): Clc1ccccc1C(c1ccccc1)(c1ccccc1)n1ccnc1 [Clotrimazole]
- MIC50 (S. boulardii; [5]): 1 mg/L
- MIC50 (S. cerevisiae [1]; [5]): 1 mg/L
- MIC50 (S. pombe; [5]): 1 mg/L
- MIC50 (C. albicans [2]; [5]): 1 mg/L
- Zone of inhibition (ZOI) diameter (S. cerevisiae [3]; [HMIM]Cl 0 mM in plate): 21.67 mm
- Zone of inhibition (ZOI) diameter (S. cerevisiae [3]; [HMIM]Cl 2.5 mM in plate): 26.67 mm
- Zone of inhibition (ZOI) diameter (S. cerevisiae [3]; [HMIM]Cl 6.25 mM in plate): 50.33 mm
- Zone of inhibition (ZOI) diameter (S. cerevisiae [3]; [HMIM]Cl 25 mM in plate): 100 mm
- Zone of inhibition (ZOI) diameter (S. cerevisiae [3]; [OMIM]Cl 0 M in plate): 21.67 mm
- Zone of inhibition (ZOI) diameter (S. cerevisiae [3]; [OMIM]Cl 0.25 mM in plate): 30 mm
- Zone of inhibition (ZOI) diameter (S. cerevisiae [3]; [OMIM]Cl 0.625 mM in plate): 47.33 mm
- Zone of inhibition (ZOI) diameter (S. cerevisiae [3]; [OMIM]Cl 2.5 mM in plate): 100 mm
- average growth, visually scored (2 full, 1 interrupted, 0 no growth) (C. albicans [4]; Clotrimazole 0.1 mg/L): 2
- average growth, visually scored (2 full, 1 interrupted, 0 no growth) (C. albicans [4]; Clotrimazole 0.25 mg/L): 2
- average growth, visually scored (2 full, 1 interrupted, 0 no growth) (C. albicans [4]; Clotrimazole 0.5 mg/L): 2
- average growth, visually scored (2 full, 1 interrupted, 0 no growth) (C. albicans [4]; Clotrimazole 1 mg/L): 2
- average growth, visually scored (2 full, 1 interrupted, 0 no growth) (C. albicans [4]; Clotrimazole 2 mg/L): 1.67
- average growth, visually scored (2 full, 1 interrupted, 0 no growth) (C. albicans [4]; Clotrimazole 4 mg/L): 1.33
- average growth, visually scored (2 full, 1 interrupted, 0 no growth) (C. albicans [4]; Clotrimazole 8 mg/L): 1
- average growth, visually scored (2 full, 1 interrupted, 0 no growth) (C. albicans [4]; Clotrimazole 15 mg/L): 1
- average growth, visually scored (2 full, 1 interrupted, 0 no growth) (C. albicans [4]; Clotrimazole 31 mg/L): 1
- average growth, visually scored (2 full, 1 interrupted, 0 no growth) (C. albicans [4]; Clotrimazole 62 mg/L): 0.67
- average growth, visually scored (2 full, 1 interrupted, 0 no growth) (C. albicans [4]; Clotrimazole 125 mg/L): 0.67
- average growth, visually scored (2 full, 1 interrupted, 0 no growth) (C. albicans [4]; Clotrimazole 250 mg/L): 0.33
- Clotrimazole concentration at 50% growth (C. albicans [4]; with 0.39 mM [OMIM]Cl): 4 mg/L
- Clotrimazole concentration at 50% growth (C. albicans [4]; with 1.562 mM [HMIM]Cl): 4 mg/L

Structure (SMILES): CCCCCCn1cc[n+](C)c1.[Cl-] [[HMIM]Cl, 1-hexyl-3-methylimidazolium chloride]
- MIC50 (S. boulardii; 48 h): 6.25 mM
- MIC50 (S. cerevisiae [1]; 48 h): 6.25 mM
- MIC50 (S. pombe; 48 h): 6.25 mM
- MIC50 (C. albicans [2]): 25 mM
- growth of S. cerevisiae on IL plate (S. cerevisiae [3]; plates with 25 mM [HMIM]Cl): complete inability to grow
- IL concentration at 50% growth (MIC50 used for FIC) (C. albicans [4]; IL alone, fungicidal checkerboard): 6.25 mM
- antifungal effect of IL without Clotrimazole (C. albicans [4]; [HMIM]Cl 12.5 mM): not completely fungicidal
- IL concentration at 50% growth (MIC50 used for FIC) (C. albicans [4]; [6]): 1.562 mM

Structure (SMILES): CCCCCCCCn1cc[n+](C)c1.[Cl-] [[OMIM]Cl, 1-octyl-3-methylimidazolium chloride]
- MIC50 (S. boulardii; [5]): 0.625 mM
- MIC50 (S. cerevisiae [1]; [5]): 0.625 mM
- MIC50 (S. pombe; [5]): 1.25 mM
- MIC50 (C. albicans [2]; [5]): 3.12 mM
- growth of S. cerevisiae on IL plate (S. cerevisiae [3]; plates with 2.5 mM [OMIM]Cl): complete inability to grow
- antifungal effect of IL without Clotrimazole (C. albicans [4]; [OMIM]Cl 6.25 mM): not completely fungicidal
- IL concentration at 50% growth (MIC50 used for FIC) (C. albicans [4]; [6]): 0.39 mM
